In ChEMBL document CHEMBL1201862, “PubChem BioAssay data set” (2004):
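Dose response: 5 concentrations. Exposure: 48 h. Format: 96-well plates. Endpoint: linear interpolation; highest concentration if not reached. Here, GI50 denotes the concentration required for 50% inhibition of growth.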 Calls of active or inactive are those of the source. Rule as the data show it: active = GI50 up to about 1.1 µM and inactive = higher.

What was measured:
Test in all cases: DTP human tumour cell line panel, 48 h
[1] = system: MOLT-4
[2] = system: NCI/ADR-RES
[3] = system: OVCAR-8
[4] = system: SNB-19
[5] = system: HT-29
[6] = system: SK-MEL-5
[7] = system: HCC 2998
[8] = system: UACC-257
[9] = system: LOX IMVI
[10] = system: TK-10
[11] = system: UACC-62
[12] = system: 786-0
[13] = system: NCI-H522
[14] = system: KM12
[15] = system: Hs-578T
[16] = system: EKVX
[17] = system: SR
[18] = system: HL-60
[19] = system: HOP-62
[20] = system: NCI-H460
[21] = system: CAKI-1
[22] = system: ACHN
[23] = system: HOP-92
[24] = system: U-251
[25] = system: CCRF-CEM
[26] = system: SF-295
[27] = system: SK-OV-3
[28] = system: SN12C
[29] = system: DU-145
[30] = system: RPMI-8226
[31] = system: OVCAR-4
[32] = system: SW-620
[33] = system: BT-549
[34] = system: HCT-116
[35] = system: HCT-15
[36] = system: MDA-MB-435
[37] = system: T47D
[38] = system: OVCAR-3
[39] = system: Malme-3M
[40] = system: A549
[41] = system: COLO 205
[42] = system: MDA-N
[43] = system: OVCAR-5
[44] = system: SF-539
[45] = system: UO-31
[46] = system: RXF 393
[47] = system: A498
[48] = system: M14
[49] = system: NCI-H23
[50] = system: SF-268
[51] = system: SK-MEL-28
[52] = system: IGROV-1
[53] = system: MCF7
[54] = system: SK-MEL-2
[55] = system: NCI-H226
[56] = system: PC-3
[57] = system: MDA-MB-231
[58] = system: SNB-75
[59] = system: K562

C[C@H]1/C(=C/C(=O)OCCN(C)C)CC[C@H]2[C@H]1C(=O)C[C@H]1C(C)(C)[C@@H](O)CC[C@]21C
GI50 [1]: > 100 µM (inactive)
GI50 [2]: > 100 µM (inactive)
GI50 [3]: > 100 µM (inactive)
GI50 [4]: > 100 µM (inactive)
GI50 [5]: > 100 µM (inactive)
GI50 [6]: > 100 µM (inactive)
GI50 [7]: > 100 µM (inactive)
GI50 [8]: > 100 µM (inactive)
GI50 [9]: > 100 µM (inactive)
GI50 [10]: > 100 µM (inactive)
GI50 [11]: > 100 µM (inactive)
GI50 [12]: > 100 µM (inactive)
GI50 [13]: > 100 µM (inactive)
GI50 [14]: > 100 µM (inactive)
GI50 [15]: > 100 µM (inactive)
GI50 [16]: > 100 µM (inactive)
GI50 [17]: > 100 µM (inactive)
GI50 [18]: > 100 µM (inactive)
GI50 [19]: > 100 µM (inactive)
GI50 [20]: > 100 µM (inactive)
GI50 [21]: > 100 µM (inactive)
GI50 [22]: > 100 µM (inactive)
GI50 [23]: > 100 µM (inactive)
GI50 [24]: > 100 µM (inactive)
GI50 [25]: > 100 µM (inactive)
GI50 [26]: > 100 µM (inactive)
GI50 [27]: > 100 µM (inactive)
GI50 [28]: > 100 µM (inactive)
GI50 [29]: > 100 µM (inactive)
GI50 [30]: > 100 µM (inactive)
GI50 [31]: > 100 µM (inactive)
GI50 [32]: > 100 µM (inactive)
GI50 [33]: > 100 µM (inactive)
GI50 [34]: > 100 µM (inactive)
GI50 [35]: > 100 µM
GI50 [36]: > 100 µM (inactive)
GI50 [37]: > 100 µM (inactive)
GI50 [38]: > 100 µM (inactive)
GI50 [39]: > 100 µM (inactive)
GI50 [40]: > 100 µM (inactive)
GI50 [41]: > 100 µM (inactive)
GI50 [42]: > 100 µM (inactive)
GI50 [43]: > 100 µM (inactive)
GI50 [44]: > 100 µM (inactive)
GI50 [45]: > 100 µM (inactive)
GI50 [46]: > 100 µM (inactive)
GI50 [47]: > 100 µM (inactive)
GI50 [48]: > 100 µM (inactive)
GI50 [49]: > 100 µM (inactive)
GI50 [50]: > 100 µM (inactive)
GI50 [51]: > 100 µM (inactive)
GI50 [52]: > 100 µM (inactive)
GI50 [53]: > 100 µM (inactive)
GI50 [54]: > 100 µM (inactive)
GI50 [55]: 22.5 µM (inactive)
GI50 [56]: > 100 µM (inactive)
GI50 [57]: > 100 µM (inactive)

O=C1C[C@H](CCC(=O)OCc2ccccc2)NC(=O)C[C@H](CCC(=O)OCc2ccccc2)NC(=O)C[C@H](CCC(=O)OCc2ccccc2)N1
GI50 [1]: > 100 µM (inactive)
GI50 [58]: 2.22 µM (inactive)
GI50 [2]: 82.4 µM (inactive)
GI50 [3]: > 100 µM (inactive)
GI50 [4]: 9.98 µM (inactive)
GI50 [5]: > 100 µM (inactive)
GI50 [6]: > 100 µM (inactive)
GI50 [7]: > 100 µM (inactive)
GI50 [8]: > 100 µM (inactive)
GI50 [9]: > 100 µM (inactive)
GI50 [10]: 6.24 µM (inactive)
GI50 [11]: 88.9 µM (inactive)
GI50 [12]: 8.15 µM (inactive)
GI50 [13]: > 100 µM (inactive)
GI50 [14]: > 100 µM (inactive)
GI50 [15]: 5.24 µM (inactive)
GI50 [16]: > 100 µM (inactive)
GI50 [17]: > 100 µM (inactive)
GI50 [19]: 16.2 µM (inactive)
GI50 [20]: > 100 µM (inactive)
GI50 [21]: > 100 µM (inactive)
GI50 [22]: 17.1 µM (inactive)
GI50 [23]: 3.92 µM (inactive)
GI50 [24]: 5.24 µM (inactive)
GI50 [25]: > 100 µM (inactive)
GI50 [26]: 8.81 µM (inactive)
GI50 [27]: 5.92 µM (inactive)
GI50 [28]: > 100 µM (inactive)
GI50 [29]: > 100 µM (inactive)
GI50 [30]: > 100 µM (inactive)
GI50 [31]: > 100 µM (inactive)
GI50 [32]: > 100 µM (inactive)
GI50 [59]: > 100 µM (inactive)
GI50 [33]: 24.3 µM (inactive)
GI50 [34]: 26.2 µM (inactive)
GI50 [35]: > 100 µM
GI50 [36]: > 100 µM (inactive)
GI50 [37]: 44.3 µM (inactive)
GI50 [38]: 97.1 µM (inactive)
GI50 [39]: > 100 µM (inactive)
GI50 [40]: > 100 µM (inactive)
GI50 [41]: > 100 µM (inactive)
GI50 [42]: > 100 µM (inactive)
GI50 [43]: > 100 µM (inactive)
GI50 [44]: 5.64 µM (inactive)
GI50 [45]: > 100 µM (inactive)
GI50 [46]: 2.36 µM (inactive)
GI50 [47]: 7.57 µM (inactive)
GI50 [48]: > 100 µM (inactive)
GI50 [49]: 52.8 µM (inactive)
GI50 [51]: > 100 µM (inactive)
GI50 [52]: 50.2 µM (inactive)
GI50 [53]: > 100 µM (inactive)
GI50 [54]: 17.1 µM (inactive)
GI50 [55]: > 100 µM (inactive)
GI50 [56]: > 100 µM (inactive)
GI50 [57]: 14.2 µM (inactive)

Nc1ccc(Oc2ccc(C3(c4ccc(Oc5ccc(N)c(O)c5)cc4)C4CC5CC(C4)CC3C5)cc2)cc1O
GI50 [1]: 1.66 µM (inactive)
GI50 [2]: 2.35 µM (inactive)
GI50 [3]: 1.7 µM (inactive)
GI50 [4]: 2.4 µM (inactive)
GI50 [5]: 1.64 µM (inactive)
GI50 [6]: 1.58 µM (inactive)
GI50 [7]: 1.65 µM (inactive)
GI50 [8]: 2.12 µM (inactive)
GI50 [9]: 1.81 µM (inactive)
GI50 [10]: 2.12 µM (inactive)
GI50 [11]: 2.69 µM (inactive)
GI50 [12]: 1.82 µM (inactive)
GI50 [13]: 1.73 µM (inactive)
GI50 [14]: 1.91 µM (inactive)
GI50 [15]: 2.24 µM (inactive)
GI50 [16]: 2.2 µM (inactive)
GI50 [17]: 1.17 µM (inactive)
GI50 [18]: 2.11 µM (inactive)
GI50 [19]: 2.5 µM (inactive)
GI50 [20]: 1.73 µM (inactive)
GI50 [21]: 2.47 µM (inactive)
GI50 [22]: 1.82 µM (inactive)
GI50 [23]: 2.92 µM (inactive)
GI50 [24]: 1.7 µM (inactive)
GI50 [25]: 2.82 µM (inactive)
GI50 [26]: 3.06 µM (inactive)
GI50 [27]: 2.45 µM (inactive)
GI50 [28]: 1.9 µM (inactive)
GI50 [29]: 1.82 µM (inactive)
GI50 [30]: 1.97 µM (inactive)
GI50 [31]: 2.43 µM (inactive)
GI50 [32]: 1.77 µM (inactive)
GI50 [59]: 2.04 µM (inactive)
GI50 [33]: 1.66 µM (inactive)
GI50 [34]: 1.5 µM (inactive)
GI50 [35]: 1.73 µM
GI50 [36]: 2.02 µM (inactive)
GI50 [37]: 3.27 µM (inactive)
GI50 [38]: 1.56 µM (inactive)
GI50 [39]: 2.3 µM (inactive)
GI50 [40]: 1.81 µM (inactive)
GI50 [41]: 0.484 µM (active)
GI50 [42]: 2.03 µM (inactive)
GI50 [43]: 2.35 µM (inactive)
GI50 [44]: 1.12 µM (active)
GI50 [45]: 1.92 µM (inactive)
GI50 [46]: 1.73 µM (inactive)
GI50 [47]: 5.74 µM (inactive)
GI50 [48]: 1.71 µM (inactive)
GI50 [49]: 1.91 µM (inactive)
GI50 [50]: 1.53 µM (inactive)
GI50 [51]: 1.84 µM (inactive)
GI50 [52]: 1.75 µM (inactive)
GI50 [53]: 1.67 µM (inactive)
GI50 [54]: 1.86 µM (inactive)
GI50 [55]: 1.83 µM (inactive)
GI50 [56]: 1.68 µM (inactive)
GI50 [57]: 1.82 µM (inactive)
